Tested on: 422866-222-R5-J1-PDC spheroid viability
Experiment: Anticancer human tumor 422866-222-R5-J1-PDC patient-derived pancreatic adenocarcinoma cell line growth inhibition [CLK]
Settings: spheroids with HUVEC and MSC; for IC50: curve of first compound; for viability, T/C: stronger effect = lower value
Procedure, shortened: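 Patient-derived tumor cells grown as complex spheroids with HUVEC endothelial cells and mesenchymal stem cells, treated with drug combinations. Concentrations descend in half-log steps from near clinical Cmax, or from 10 microM if Cmax unknown.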

[1] = second compound 0.0316 µM, first compound 0.0316 µM
[2] = second compound 0.0316 µM, first compound 0.1 µM
[3] = second compound 0.0316 µM, first compound 0.316 µM
[4] = second compound 0.0316 µM, first compound 1 µM
[5] = second compound 0.0316 µM, first compound 3.16 µM
[6] = second compound 0.0316 µM, first compound 10 µM
[7] = second compound 0.1 µM, first compound 0.0316 µM
[8] = second compound 0.1 µM, first compound 0.1 µM
[9] = second compound 0.1 µM, first compound 0.316 µM
[10] = second compound 0.1 µM, first compound 1 µM
[11] = second compound 0.1 µM, first compound 3.16 µM
[12] = second compound 0.1 µM, first compound 10 µM
[13] = second compound 0.316 µM, first compound 0.0316 µM
[14] = second compound 0.316 µM, first compound 0.1 µM
[15] = second compound 0.316 µM, first compound 0.316 µM
[16] = second compound 0.316 µM, first compound 1 µM
[17] = second compound 0.316 µM, first compound 3.16 µM
[18] = second compound 0.316 µM, first compound 10 µM
[19] = second compound 1 µM, first compound 0.0316 µM
[20] = second compound 1 µM, first compound 0.1 µM
[21] = second compound 1 µM, first compound 0.316 µM
[22] = second compound 1 µM, first compound 1 µM
[23] = second compound 1 µM, first compound 3.16 µM
[24] = second compound 1 µM, first compound 10 µM
[25] = second compound 3.16 µM, first compound 0.0316 µM
[26] = second compound 3.16 µM, first compound 0.1 µM
[27] = second compound 3.16 µM, first compound 0.316 µM
[28] = second compound 3.16 µM, first compound 1 µM
[29] = second compound 3.16 µM, first compound 3.16 µM
[30] = second compound 3.16 µM, first compound 10 µM
[31] = second compound 10 µM, first compound 0.0316 µM
[32] = second compound 10 µM, first compound 0.1 µM
[33] = second compound 10 µM, first compound 0.316 µM
[34] = second compound 10 µM, first compound 1 µM
[35] = second compound 10 µM, first compound 3.16 µM
[36] = second compound 10 µM, first compound 10 µM
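Further: spheroids exposed to agents for seven days before readout.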

## CC1(C)CCC(CN2CCN(c3ccc(C(=O)NS(=O)(=O)c4ccc(NCC5CCOCC5)c([N+](=O)[O-])c4)c(Oc4cnc5[nH]ccc5c4)c3)CC2)=C(c2ccc(Cl)cc2)C1 + CN1CCN(c2cc(C(=O)Nc3cc4cc(-c5cnn(C)c5)ccc4cn3)ccn2)CC1
Second compound 0.0316 µM
  IC50: > 10 µM
Second compound 0.1 µM
  IC50: > 10 µM
Second compound 0.316 µM
  IC50: 7.96 µM
Second compound 1 µM
  IC50: < 0.0316 µM
Second compound 3.16 µM
  IC50: < 0.0316 µM
Second compound 10 µM
  IC50: < 0.0316 µM
[1]
  viability, T/C: 105%
[2]
  viability, T/C: 104%
[3]
  viability, T/C: 101%
[4]
  viability, T/C: 115%
[5]
  viability, T/C: 113%
[6]
  viability, T/C: 69.3%
[7]
  viability, T/C: 111%
[8]
  viability, T/C: 117%
[9]
  viability, T/C: 105%
[10]
  viability, T/C: 109%
[11]
  viability, T/C: 95.8%
[12]
  viability, T/C: 58.3%
[13]
  viability, T/C: 89.2%
[14]
  viability, T/C: 107%
[15]
  viability, T/C: 96.5%
[16]
  viability, T/C: 91.2%
[17]
  viability, T/C: 91.9%
[18]
  viability, T/C: 39.6%
[19]
  viability, T/C: 26.1%
[20]
  viability, T/C: 26.1%
[21]
  viability, T/C: 22.1%
[22]
  viability, T/C: 27.5%
[23]
  viability, T/C: 25.1%
[24]
  viability, T/C: 12.1%
[25]
  viability, T/C: 11.2%
[26]
  viability, T/C: 10.1%
[27]
  viability, T/C: 8.93%
[28]
  viability, T/C: 9.29%
[29]
  viability, T/C: 8.57%
[30]
  viability, T/C: 0.67%
[31]
  viability, T/C: 3.46%
[32]
  viability, T/C: 3.09%
[33]
  viability, T/C: 2.86%
[34]
  viability, T/C: 1.74%
[35]
  viability, T/C: 2.12%
[36]
  viability, T/C: 1.57%

## COC1C=CCC(C)C(C)S(=O)(=O)NC(=O)c2ccc3c(c2)N(CC2CCC21)CC1(CCCc2cc(Cl)ccc21)CO3 (centres undefined) + CNC(=O)c1ccc(Nc2nc(OC3CCCC3)c3c(-c4ccc5nc(C)oc5c4)c[nH]c3n2)c(OC)c1
Second compound 0.0316 µM
  IC50: > 10 µM
Second compound 0.1 µM
  IC50: > 10 µM
Second compound 0.316 µM
  IC50: > 10 µM
Second compound 1 µM
  IC50: > 10 µM
Second compound 3.16 µM
  IC50: > 10 µM
Second compound 10 µM
  IC50: > 10 µM
[1]
  viability, T/C: 118%
[2]
  viability, T/C: 112%
[3]
  viability, T/C: 114%
[4]
  viability, T/C: 96.4%
[5]
  viability, T/C: 120%
[6]
  viability, T/C: 84.6%
[7]
  viability, T/C: 101%
[8]
  viability, T/C: 92.9%
[9]
  viability, T/C: 94.1%
[10]
  viability, T/C: 89.2%
[11]
  viability, T/C: 97.8%
[12]
  viability, T/C: 79.6%
[13]
  viability, T/C: 85.2%
[14]
  viability, T/C: 86.5%
[15]
  viability, T/C: 72.9%
[16]
  viability, T/C: 82.3%
[17]
  viability, T/C: 91.6%
[18]
  viability, T/C: 86.6%
[19]
  viability, T/C: 69.3%
[20]
  viability, T/C: 68.7%
[21]
  viability, T/C: 60%
[22]
  viability, T/C: 63.9%
[23]
  viability, T/C: 87%
[24]
  viability, T/C: 82.2%
[25]
  viability, T/C: 69.9%
[26]
  viability, T/C: 61.5%
[27]
  viability, T/C: 62.4%
[28]
  viability, T/C: 57.9%
[29]
  viability, T/C: 88%
[30]
  viability, T/C: 82%
[31]
  viability, T/C: 58%
[32]
  viability, T/C: 59.5%
[33]
  viability, T/C: 69.5%
[34]
  viability, T/C: 72.8%
[35]
  viability, T/C: 94.8%
[36]
  viability, T/C: 91.5%

From PubChem BioAssay AID2060603 (Molecular Pharmacology Branch, DTP, NCI, 2025)
